Assays:
Format in all cases: biochemical
[1] = target: constitutive proteasome β5c unit (Homo sapiens, UniProt P28074); assay: Caliper-based proteasome enzymatic activity assay, β5c; conditions: human recombinant constitutive proteasome 0.3 nM, FAM-labeled peptide substrate 1 μM, rt 3 h; read-out: β5c subunit IC50
[2] = target: immunoproteasome LMP7/B5i subunit (Homo sapiens, UniProt P28062); assay: Caliper-based proteasome enzymatic activity assay, LMP7; conditions: human recombinant immunoproteasome 0.3 nM, FAM-labeled peptide substrate 1 μM, rt 3 h; read-out: LMP7 subunit IC50
[3] = target: immunoproteasome LPM2/β1i subunit (Homo sapiens, UniProt P28065); assay: Caliper-based proteasome enzymatic activity assay, LMP2; conditions: human recombinant immunoproteasome 0.3 nM, FAM-labeled peptide substrate 1 μM, rt 2 h

IC50 [1] | IC50 [2] | Compound | IC50 [3]
> 5000 nM | 13 nM | Cc1ccc(C[C@H](NC(=O)NC[C@@H]2CCCN2C(=O)C(C#N)=CC(C)(C)C)B(O)O)cc1 [Example 42, ((R)-1-(3-(((S)-1-(2-cyano-4,4-dimethylpent-2-enoyl)pyrrolidin-2-yl)methyl)ureido)-2-(p-tolyl)ethyl)boronic acid] | > 5000 nM
851 nM | 5.4 nM | CC1(C)CCN(C(C)(C)C=C(C#N)C(=O)N2CCC[C@H](OC(=O)N[C@@H](Cc3ccc(F)cc3)B(O)O)C2)C1 [Example 72, ((R)-1-(((((S)-1-(2-cyano-4-(3,3-dimethylpyrrolidin-1-yl)-4-methylpent-2-enoyl)piperidin-3-yl)oxy)carbonyl)amino)-2-(4-fluorophenyl)ethyl)boronic acid] | –
967 nM | 1.3 nM | C[C@@H]1CN(C(C)(C)C=C(C#N)C(=O)N2C3CCC2(COC(=O)N[C@@H](Cc2ccccc2)B(O)O)CC3)C[C@@H](C)O1 [Example 126, ((R)-1-((((7-(2-cyano-4-((2R,6R)-2,6-dimethylmorpholino)-4-methylpent-2-enoyl)-7-azabicyclo[2.2.1]heptan-1-yl)methoxy)carbonyl)amino)-2-phenylethyl)boronic acid] | –
15.6 nM | 9.6 nM | CC(C)C=C(C#N)C(=O)N1CCC[C@@H]1COC[C@H](NC(=O)c1cc(Cl)ccc1Cl)C(=O)N[C@@H](Cc1ccccc1)[B-]12OC(=O)C[N+]1(C)CC(=O)O2 (stereo partly drawn) [Example 19, 8-((R)-1-((S)-3-(((R)-1-(2-cyano-4-methylpent-2-enoyl)pyrrolidin-2-yl)methoxy)-2-(2,5-dichlorobenzamido)propanamido)-2-phenylethyl)-4-methyl-2,6-dioxohexahydro-[1,3,2]oxazaborolo[2,3-b][1,3,2]oxazaborol-4-ium-8-uide] | –
175 nM | 72 nM | CC(C)C=C(C#N)C(=O)N(C)c1cccc(C[C@H](NCC(F)(F)F)C(=O)N[C@@H](CC(C)C)B(O)O)c1 [Example 27, ((R)-1-((S)-3-(3-(2-cyano-N,4-dimethylpent-2-enamido)phenyl)-2-((2,2,2-trifluoroethyl)amino)propanamido)-3-methylbutyl)boronic acid] | –
255 nM | 9.9 nM | CC(C)(C=C(C#N)C(=O)N1CCC[C@H](CC(=O)N[C@@H](Cc2ccccc2)B(O)O)C1)N1CCC(F)(F)C1 [Example 56, ((R)-1-(2-((R)-1-(2-cyano-4-(3,3-difluoropyrrolidin-1-yl)-4-methylpent-2-enoyl)piperidin-3-yl)acetamido)-2-phenylethyl)boronic acid] | –
279 nM | 0.7 nM | CC(C)(C=C(C#N)C(=O)N1C2CCC1(COC(=O)N[C@@H](Cc1ccc(F)cc1)B(O)O)CC2)N1CCC(F)(F)C1 [Example 84, (R)-(1-((((7-(2-cyano-4-(3,3-difluoropyrrolidin-1-yl)-4-methylpent-2-enoyl)-7-azabicyclo[2.2.1]heptan-1-yl)methoxy)carbonyl)amino)-2-(4-fluorophenyl)ethyl)boronic acid] | –
3560 nM | 206 nM | CC(C)(C=C(C#N)C(=O)N1CC[C@H](NC(=O)N[C@@H](Cc2ccccc2)B(O)O)C1)N1CCC(F)(F)C1 [Example 100, ((R)-1-(3-((S)-1-(2-cyano-4-(3,3-difluoropyrrolidin-1-yl)-4-methylpent-2-enoyl)pyrrolidin-3-yl)ureido)-2-phenylethyl)boronic acid] | –
> 5000 nM | 2.4 nM | CC(C)(C=C(C#N)C(=O)N1CCCC[C@H](OC(=O)N[C@@H](Cc2ccccc2)B(O)O)C1)N1CCOCC1 (single isomer, unassigned) [Example 104] | –
3000 nM | 1.2 nM | COC(=O)N1CCN(C(C)(C)C=C(C#N)C(=O)N2CCCC[C@H](OC(=O)N[C@@H](Cc3ccccc3)B(O)O)C2)CC1 [Example 108, ((R)-1-(((((S)-1-(2-cyano-4-(4-(methoxycarbonyl)piperazin-1-yl)-4-methylpent-2-enoyl)azepan-3-yl)oxy)carbonyl)amino)-2-phenylethyl)boronic acid] | –
> 5000 nM | > 5000 nM | C=CC(=O)N1CCCC(C)(OC(=O)N[C@@H](Cc2ccc(F)cc2)B(O)O)C1 (mixture of isomers) [Example 91, ((1R)-1-((((1-acryloyl-3-methylpiperidin-3-yl)oxy)carbonyl)amino)-2-(4-fluorophenyl)ethyl)boronic acid] | –
2220 nM | 1.8 nM | CC(C)(C=C(C#N)C(=O)N1C2CCC1(COC(=O)N[C@@H](Cc1ccccc1)B(O)O)CC2)N1CCOCC1 [Example 81] | –
1240 nM | 31.8 nM | CC1(C)CCN(C(C)(C)C=C(C#N)C(=O)N2CCC[C@H](OC(=O)N[C@@H](Cc3coc4ccccc34)B(O)O)C2)C1 [Example 68, ((R)-2-(benzofuran-3-yl)-1-(((((S)-1-(2-cyano-4-(3,3-dimethylpyrrolidin-1-yl)-4-methylpent-2-enoyl)piperidin-3-yl)oxy)carbonyl)amino)ethyl)boronic acid] | –
1200 nM | 4 nM | CC(C)(C=C(C#N)C(=O)N1CCC[C@@H]1CNC(=O)N[C@@H](Cc1coc2ccccc12)B(O)O)N1CCC(F)(F)C1 [Example 50, ((R)-2-(benzofuran-3-yl)-1-(3-(((R)-1-(2-cyano-4-(3,3-difluoropyrrolidin-1-yl)-4-methylpent-2-enoyl)pyrrolidin-2-yl)methyl)ureido)ethyl)boronic acid] | –
1380 nM | 1.7 nM | CC(C)(C=C(C#N)C(=O)N1C2CCC1(COC(=O)N[C@@H](Cc1ccc(F)cc1)B(O)O)CC2)N1CCOCC1 [Example 82, (R)-(1-((((7-(2-cyano-4-methyl-4-morpholinopent-2-enoyl)-7-azabicyclo[2.2.1]heptan-1-yl)methoxy)carbonyl)amino)-2-(4-fluorophenyl)ethyl)boronic acid] | –
2100 nM | 149 nM | C=C(F)C(=O)N1CCC[C@H](OC(=O)N[C@@H](Cc2ccc(F)cc2)B(O)O)C1 [Example 74, ((R)-1-(((((S)-1-(2-fluoroacryloyl)piperidin-3-yl)oxy)carbonyl)amino)-2-(4-fluorophenyl)ethyl)boronic acid] | –
4030 nM | 21.1 nM | C=CC(=O)N1C2CCC1(COC(=O)N[C@@H](Cc1ccc(F)cc1)B(O)O)CC2 [Example 76, (R)-(1-((((7-acryloyl-7-azabicyclo[2.2.1]heptan-1-yl)methoxy)carbonyl)amino)-2-(4-fluorophenyl)ethyl)boronic acid] | –
1 nM | 1.3 nM | CC(C)C=C(C#N)C(=O)NCCCC[C@H](NC(=O)c1cccc(O)n1)C(=O)N[C@@H](CC(C)C)B(O)O [Example 7, ((R)-1-((S)-6-(2-cyano-4-methylpent-2-enamido)-2-(6-hydroxypicolinamido)hexanamido)-3-methylbutyl)boronic acid] | –

Compound | IC50 [1] | IC50 [2] | IC50 [3]
C=CC(=O)N1CCC[C@@H]1CNC(=O)N[C@@H](Cc1ccccc1)B(O)O [Example 36, ((R)-1-(3-(((R)-1-acryloylpyrrolidin-2-yl)methyl)ureido)-2-phenylethyl)boronic acid] | > 5000 nM | 1140 nM | > 5000 nM
CC(C)(C=C(C#N)C(=O)N1CCC[C@@H](OC(=O)N[C@@H](Cc2ccccc2)B(O)O)C1)N1CCC(F)(F)C1 [Example 55, ((R)-1-(((((R)-1-(2-cyano-4-(3,3-difluoropyrrolidin-1-yl)-4-methylpent-2-enoyl)piperidin-3-yl)oxy)carbonyl)amino)-2-phenylethyl)boronic acid] | 3880 nM | 5.1 nM | –

Reference: US12312370B2, “Immunoproteasome inhibitors” (Principia Biopharma Inc., priority 2017, dated 2025)
